{"source": "patent US12109221B2", "about": "“Combination therapy for treating cancer” (LEUKOS BIOTECH, S.L., priority 2017, dated 2024)", "key": {"[1]": {"test_system": "AML cell lines (TPH-1 and MonoMac1)", "experiment": "Cell viability by flow cytometry 72 h after treatment, HTR1 antagonist plus cytarabine, combination index", "type": "cell-based, human", "conditions": "in combination with cytarabine, CI below 1 = synergism", "description": "FIGS. 1A and 1B. […] FIG. 1A. Cell viability was measured by flow cytometry (correct FSC-SSC profile, 7-AAD-, Hoechst33342^low). Normalized number of live cells is graphed. Bars represent the mean value and error bars represent SEM. *** p<0.001; **** p<0.0001. NLC: Number of live cells (referred to control). FIG. 1B. Combination index (CI) value of each combination.\n(§1) Synergy is determined herein by means of the Combination Index Model, described previously (Chou T C, Pharmacological Reviews 58: 621-681, 2006). The CI was measured using Compusyn open software. CI values below 1 indicate synergism. CI values about 1 indicate additivism and CI values above 1 indicate antagonisms."}, "[2]": {"test_system": "KG-1 and Ara-C-resistant KG-1", "experiment": "Sensitivity to HTR1 antagonists, parental versus Ara-C-resistant cells, cell viability by flow cytometry", "type": "cell-based, human", "conditions": "KG-1 parental vs Ara-C-resistant KG-1; 72 h"}, "[3]": {"test_system": "AML cell lines (HL-60 and MonoMac-1)", "experiment": "Cell viability by flow cytometry 72 h after treatment, HTR1 antagonist plus azacitidine or decitabine, combination index", "type": "cell-based, human", "description": "FIGS. 2A and 2B. […] MonoMac-1 cells were cultured for 72 h in a complete RPMI medium in the presence of 2, 5, 10 μM apomorphine (APO) or methiothepin (MET), and 100, 200, 1000 nM azacitidine (AZA). FIG. 2A. Cell viability was measured by flow cytometry (correct FSC-SSC profile, 7-AAD-, Hoechst33342^low). Normalized number of live cells is graphed. Bars represent the mean value and error bars represent SEM. *** p<0.001; **** p<0.0001. NLC: Number of live cells (referred to control). FIG. 2B. Combination index (CI) value of each combination.\nFIGS. 3A and 3B. […] Cell viability was measured by flow cytometry (correct FSC-SSC profile, 7-AAD-, Hoechst33342^low). […]\nSynergy is determined herein by means of the Combination Index Model, described previously (Chou T C, Pharmacological Reviews 58: 621-681, 2006). The CI was measured using Compusyn open software. […]\nNext, the inventors examined the interaction between HTR1 antagonists and azacitidine. […] Cell viability was measured by flow cytometry (live cells according to the correct FSC-SSC profile, 7-AAD negativity and Hoechst 33342 positivity) 72 h after treatment.\nSimilarly, decitabine was also interrogated for its potential cytotoxic interaction with HTR1 antagonists. […] 72 h after treatment, cell viability was measured by flow cytometry (live cells according to the correct FSC-SSC profile, 7-AAD negativity and Hoechst 33342 positivity)."}, "[4]": {"test_system": "Sp1 gene expression in HL-60 AML cells", "experiment": "Sp1 mRNA expression by semi-quantitative PCR", "type": "cell-based, human", "conditions": "HL-60 cells, 72 h; 10 µM apomorphine, 10 µM methiothepin, 5 µM SB224289", "description": "FIG. 7. Treatment with HTR1 antagonists decreased Sp1 gene expression. HL-60 AML cells were treated with 10 μM apomorphine (APO), 10 μM methiothepin (MET) or 5 μM SB224289 (SB9) for 72 h. Total RNA was isolated and cDNA was obtained afterwards. Semi-quantitative PCR was performed to detect gene expression. Sp1 gene expression is represented as 2^(−ΔΔCt) using GAPDH as the endogenous control. Bars represent the mean value of triplicates. Error bars correspond to SEM. * p<0.05; **** p<0.0001. ddCt: 2^(−ΔΔCt).\nAt a gene expression level, the expression of Sp1 mRNA was studied. Sp1 has been implicated with chemotherapeutic resistance (Zhang et al. Mol Cancer 2015; 14:56). HL-60 AML cells were treated for 72 h with 10 µM apomorphine, 10 µM methiothepin and 5 µM SB224289. Total RNA as isolated and mRNA was retrotranscribed to cDNA. Semi-quantitative PCR was performed with specific TaqMan oligo pairs."}, "[5]": {"test_system": "HL-60 and Ara-C-resistant HL-60", "experiment": "Sensitivity to HTR1 antagonists, parental versus Ara-C-resistant cells, cell viability by flow cytometry", "type": "cell-based, human", "conditions": "HL-60 parental vs Ara-C-resistant HL-60; 72 h"}, "[6]": {"test_system": "AML cell line (MonoMac-1)", "experiment": "Cell viability by flow cytometry 72 h after treatment, HTR1 antagonist plus cladribine, fludarabine or methotrexate, combination index", "type": "cell-based, human", "description": "FIGS. 8A and 8B. […] MonoMac-1 cells were cultured for 72 h in a complete RPMI medium in the presence of 5, 10 μM apomorphine (APO) or methiothepin (MET), and 10, 27, 55 nM cladribine (CLD). FIG. 8A. Combination index (CI) value of CLD and APO combination. FIG. 8B. CI value of CLD and MET combination.\nFIGS. 9A and 9B. […] MonoMac-1 cells were cultured for 72 h in a complete RPMI medium in the presence of 5, 10 μM apomorphine (APO) or methiothepin (MET), and 200, 500, 1000 nM fludarabine (FLD). FIG. 9A. CI value of FLD and APO combination. FIG. 9B. CI value of FLD and MET combination.\nFIG. 10. […] MonoMac-1 cells were cultured for 72 h in a complete RPMI medium in the presence of 5, 10 μM apomorphine (APO), and 2.5, 6.25, 12.5 nM methotrexate (MTX). CI value of MTX and APO combination.\nas §1\nCladribine is a cytostatic drug indicated for myeloid neoplasias. […] 72 h after treatment, cell viability was measured by flow cytometry (live cells according to the correct FSC-SSC profile, 7-AAD negativity and Hoechst 33342 positivity, and volumetrically counted).\nThe potential cytotoxic interaction of fludarabine with HTR1 antagonists was also examined on the same experimental conditions of the example 8. […] 72 h after treatment, cell viability was measured by flow cytometry (live cells according to the correct FSC-SSC profile, 7-AAD negativity and Hoechst 33342 positivity, and volumetrically counted).\nFinally, the interaction of the antineoplastic drug methotrexate with HTR1 antagonist was studied. […] 72 h after treatment, cell viability was measured by flow cytometry (live cells according to the correct FSC-SSC profile, 7-AAD negativity and Hoechst 33342 positivity, and volumetrically counted)."}, "MonoMac-1 AML cells": {"test_system": "MonoMac-1 AML cells", "experiment": "In vivo xenotransplantation assay, human AML cells in bones by flow cytometry", "design": "species or system NSG mice", "conditions": "5 mg/kg apomorphine and 30 mg/kg cytarabine, intraperitoneally, 5 days", "description": "FIG. 4. […] Bulsulfan-conditioned NSG adult mice were intravenously injected with 1×10^6 MonoMac-1 AML cells. One week after transplantation, mice were treated with 5 mg/kg apomorphine (APO) and/or 30 mg/kg cytarabine (CYT) daily for 5 days. Mice were culled and bones were harvested. Human leukemia cells were detected based on the expression of hCD45 on the surface membrane by flow cytometry. Normalized number of human AML cells against control-treated mice is represented. Bars correspond to mean values and error bars to SEM. ** p<0.01; **** p<0.0001. hAML: #human AML cells (referred to 15 control). CTR: Control.\nIn order to verify that the synergic cytotoxic effect was also detectable in vivo, pharmacological-conditioned NSG mice were transplanted intravenously with 1×10^6 MonoMac-1 AML cells. One week after transplantation, mice were treated for 5 days with 5 mg/kg apomorphine and/or 30 mg/kg cytarabine, both of them intraperitoneally. Mice were culled and bones were harvested and analyzed for human leukemia by flow cytometry."}}, "data": [{"smiles": "CN1CCc2cccc3c2[C@H]1Cc1ccc(O)c(O)c1-3", "note": "[apomorphine, (6aR)-6-methyl-5,6,6a, 7-tetrahydro-4H-dibenzo[de, g]quinoline-10,11-diol]", "values": [{"measurement": "interaction with cytarabine according to the combination index model", "setting": "[1]", "result": "act synergically"}, {"measurement": "EC50, parental compared to Ara-C-resistant cells", "setting": "[2]", "result": "equivalent EC50 values"}, {"measurement": "interaction with azacitidine (combination index)", "setting": "[3]; in combination with azacitidine", "result": "synergically anti-leukemic effect"}, {"measurement": "interaction with decitabine (combination index)", "setting": "[3]; in combination with decitabine", "result": "synergically anti-leukemic effect"}, {"measurement": "Sp1 gene expression", "setting": "[4]", "result": "downregulation of Sp1 gene expression"}, {"measurement": "EC50, parental compared to Ara-C-resistant cells", "setting": "[5]", "result": "equivalent EC50 values"}, {"measurement": "interaction with cladribine (combination index)", "setting": "[6]; in combination with cladribine", "result": "synergically anti-leukemic effect"}, {"measurement": "interaction with fludarabine (combination index)", "setting": "[6]; in combination with fludarabine", "result": "synergically antileukemic effect"}, {"measurement": "interaction with methotrexate (combination index)", "setting": "[6]; in combination with methotrexate, low and high concentrations", "result": "synergically anti-leukemic effect"}, {"measurement": "effect of the combination in in vivo treatment of AML-bearing mice", "setting": "MonoMac-1 AML cells", "result": "synergistic effect"}]}, {"smiles": "Cc1nc(-c2ccc(-c3ccc(C(=O)N4CCc5cc6c(cc54)C4(CCN(C)CC4)CO6)cc3)c(C)c2)no1", "note": "[SB224289]", "values": [{"measurement": "Sp1 gene expression", "setting": "[4]", "result": "downregulation of Sp1 gene expression"}]}, {"smiles": "Nc1ccn([C@@H]2O[C@H](CO)[C@H](O)[C@@H]2O)c(=O)n1", "note": "[Ara-C, 4-amino-1-[(2R,3S,4R,5R)-3,4-dihydroxy-5 (hydroxymethyl)oxolan-2-yl]pyrimidin-2-one]", "values": [{"measurement": "effect of the combination in in vivo treatment of AML-bearing mice", "setting": "MonoMac-1 AML cells", "result": "synergistic effect"}]}]}
